US7786141B2 (Vertex Pharmaceuticals Incorporated, priority 2004, dated 2010)
Where two headings read alike, the source gives them in different places.

Assays:
M1 muscarinic receptor = target: T1, M1 muscarinic receptor (Homo sapiens, UniProt P11229); assay: Functional mobilization of intracellular calcium (FLIPR) in M1-CHO cells; format: cell-based
T1 construct: expressed in transfected cells; host or cells: CHO (M1-CHO)
T1 sequence (P11229 1-460): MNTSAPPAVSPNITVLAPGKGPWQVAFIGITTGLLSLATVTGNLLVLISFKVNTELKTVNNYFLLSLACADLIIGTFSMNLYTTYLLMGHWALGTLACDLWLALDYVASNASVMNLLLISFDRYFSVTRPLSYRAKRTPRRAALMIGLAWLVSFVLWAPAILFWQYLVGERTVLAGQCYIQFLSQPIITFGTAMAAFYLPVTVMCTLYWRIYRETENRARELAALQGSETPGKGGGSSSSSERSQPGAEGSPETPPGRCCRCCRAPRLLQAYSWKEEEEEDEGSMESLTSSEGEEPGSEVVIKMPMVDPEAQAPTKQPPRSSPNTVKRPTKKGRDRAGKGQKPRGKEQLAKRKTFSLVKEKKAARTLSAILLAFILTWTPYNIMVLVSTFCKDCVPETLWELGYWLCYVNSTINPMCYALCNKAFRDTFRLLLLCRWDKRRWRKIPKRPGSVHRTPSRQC
In short: (§1)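 CHO cells stably expressing human M1 or M4 receptor were loaded with Fluo-3 AM (or Calcium 3 dye) in Hepes-buffered saline, pH 7.4, with 1 mM probenecid, 0.5% final DMSO. Agonist mode: compound added directly; antagonist mode: 15 min preincubation before carbachol at EC80. FLIPR fluorescence recorded 60 sec.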

M4 muscarinic receptor = target: T2, M4 muscarinic receptor (Homo sapiens, UniProt P08173); assay: Functional mobilization of intracellular calcium (FLIPR) in M4-CHO cells; format: cell-based
T2 construct: expressed in transfected cells; host or cells: CHO (M4-CHO)
T2 sequence (P08173 1-479): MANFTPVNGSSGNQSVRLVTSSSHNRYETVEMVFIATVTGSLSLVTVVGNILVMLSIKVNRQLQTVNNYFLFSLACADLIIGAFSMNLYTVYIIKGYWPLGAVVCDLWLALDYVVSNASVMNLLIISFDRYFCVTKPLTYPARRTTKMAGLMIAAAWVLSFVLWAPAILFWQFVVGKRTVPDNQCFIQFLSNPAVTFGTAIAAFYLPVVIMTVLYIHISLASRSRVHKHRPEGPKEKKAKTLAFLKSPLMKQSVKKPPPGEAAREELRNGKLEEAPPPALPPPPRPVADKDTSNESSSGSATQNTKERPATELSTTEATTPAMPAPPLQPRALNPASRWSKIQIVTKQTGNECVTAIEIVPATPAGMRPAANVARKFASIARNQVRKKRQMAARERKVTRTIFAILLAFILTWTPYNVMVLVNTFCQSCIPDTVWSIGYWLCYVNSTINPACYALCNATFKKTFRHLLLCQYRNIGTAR
In short: as §1

[1] = M1 receptor, calcium mobilization
[2] = M1 receptor, calcium mobilization, read-out: M1 Efficacy
[3] = M4 receptor, calcium mobilization
[4] = M4 receptor, calcium mobilization, read-out: M4 Efficacy
[5] = Table 4, 100% efficacy is the maximum response obtained with the Carbachol control
[6] = Table 4, M1 receptor, calcium mobilization (FLIPR)
[7] = Table 4, M4 receptor, calcium mobilization (FLIPR)
[8] = Table 4, modulating M1 receptor
[9] = Table 4, modulating M4 receptor
[10] = M1-CHO cells, calcium mobilization (FLIPR)
[11] = M1-CHO cells, calcium mobilization (FLIPR), read-out: M1 Efficacy
[12] = M4-CHO cells, calcium mobilization (FLIPR)
[13] = M4-CHO cells, calcium mobilization (FLIPR), read-out: M4 Efficacy

Structure (SMILES)	M1 Activity (M1 muscarinic receptor; [1])	Emax (M1 muscarinic receptor; [2])	M4 Activity (M4 muscarinic receptor; [3])	Emax (M4 muscarinic receptor; [4])	Emax (M1 muscarinic receptor; [5])	Emax (M4 muscarinic receptor; [5])	also measured
Cc1ccc2c(c1)C1(CCN(CC3CC4C=CC3C4)CC1)CN2 (stereo not drawn) [compound 3]	xxx (activity was measured to be less than 0.1 μM)	65 to 85%	xx (activity was measured to be between 0.1 μM and 1.0 μM)	65 to 85%			
CC(C)OC(=O)N1C2CCC1CC(N1CCC3(CC1)C(=O)Nc1ccccc13)C2 (stereo not drawn) [compound 139]	xxx (activity was measured to be less than 0.1 μM)	> 85%	xxx (activity was measured to be less than 0.1 μM)	> 85%			
Clc1ccc2c(c1)C1(CCN(CC3CC4C=CC3C4)CC1)CN2 (stereo not drawn) [compound 147]	xxx (activity was measured to be less than 0.1 μM)	65 to 85%	xx (activity was measured to be between 0.1 μM and 1.0 μM)	> 85%			
CC(=O)N[C@@H]1CCC2(CCN(CC3CCCCC3)CC2)c2ccccc21 [compound 882]					< 25%	< 25%	M1 Activity (M1 muscarinic receptor; [6]): x (activity was measured to be greater than 5.0 μM); M4 Activity (M4 muscarinic receptor; [7]): x (activity was measured to be greater than 5.0 μM)
CCOC(=O)N1CCC(N2CCC3(CC2)CN(C(C)=O)c2ccc(C(F)(F)F)cc23)CC1 [compound 603]					25 to 100%	25 to 100%	M1 Activity (M1 muscarinic receptor; [8]): xxx (activity was measured to be less than 2.0 μM); M4 Activity (M4 muscarinic receptor; [9]): xxx (activity was measured to be less than 2.0 μM)
CC(=O)N[C@@H]1CC2(CCN([C@H]3C[C@@H]4CC[C@H]3C4)CC2)c2ccccc21 [compound 171]	xx (activity was measured to be between 0.1 μM and 1.0 μM)	> 85%	x (activity was measured to be greater than 1.0 μM)	65 to 85%			
C#CCOC(=O)N1CC[C@H](CN2CCC3(CC2)CN(C(C)=O)c2cccc(C)c23)C1 [compound 573]					25 to 100%	25 to 100%	M1 Activity (M1 muscarinic receptor; [8]): xxx (activity was measured to be less than 2.0 μM); M4 Activity (M4 muscarinic receptor; [9]): xxx (activity was measured to be less than 2.0 μM)
Cc1ncc(N2CCC(N3CCC4(CC3)CN(C(=O)N(C)C)c3ccc(F)cc34)CC2)nc1C [compound 762]					25 to 100%	25 to 100%	M1 Activity (M1 muscarinic receptor; [8]): xxx (activity was measured to be less than 2.0 μM); M4 Activity (M4 muscarinic receptor; [9]): xxx (activity was measured to be less than 2.0 μM)
CC(=O)N[C@H]1CC2(CCN(CC3CCCC3)CC2)c2ccccc21 [compound 934]					25 to 100%	25 to 100%	M1 Activity (M1 muscarinic receptor; [6]): xx (activity was measured to be between 2.0 μM and 5.0 μM); M4 Activity (M4 muscarinic receptor; [7]): xxx (activity was measured to be less than 2.0 μM)
CCOC(=O)N1CCC(N2CCC3(CC2)CN(C(C)=O)c2ccc(F)cc23)CC1 [compound 413]							EC50 (M1 muscarinic receptor; [10]): < 100 nM; Emax (M1 muscarinic receptor; [11]): < 65%; EC50 (M4 muscarinic receptor; [12]): 100 to 1000 nM; Emax (M4 muscarinic receptor; [13]): < 65%
CCOC(=O)N1CCC(N2CCC3(CC2)CN(C(C)=O)c2ccc(-c4ccc(C)cc4)cc23)CC1 [compound 58]	xxx (activity was measured to be less than 0.1 μM)	65 to 85%	xx (activity was measured to be between 0.1 μM and 1.0 μM)	65 to 85%			
O=C(N[C@H]1CCC2(CCN(CC3CCCCC3)CC2)c2ccccc21)C1CC1 [compound 889]					25 to 100%	25 to 100%	M1 Activity (M1 muscarinic receptor; [6]): xxx (activity was measured to be less than 2.0 μM); M4 Activity (M4 muscarinic receptor; [7]): xxx (activity was measured to be less than 2.0 μM)
CC(=O)N1CC2(CCN(C3CCN(C(=O)OCCF)C3)CC2)c2cc(F)ccc21 (stereo not drawn) [compound 394]							EC50 (M1 muscarinic receptor; [10]): < 100 nM; Emax (M1 muscarinic receptor; [11]): < 65%; EC50 (M4 muscarinic receptor; [12]): 100 to 1000 nM; Emax (M4 muscarinic receptor; [13]): < 65%
CS(=O)(=O)N[C@H]1CCC2(CCN(CC3CCCCC3)CC2)c2ccccc21 [compound 773]					25 to 100%	25 to 100%	M1 Activity (M1 muscarinic receptor; [8]): xxx (activity was measured to be less than 2.0 μM); M4 Activity (M4 muscarinic receptor; [9]): xxx (activity was measured to be less than 2.0 μM)
CCOC(=O)N1CCC(CN2CCC3(CC2)COc2ccc(Cl)cc23)CC1 [compound 176]	xx (activity was measured to be between 0.1 μM and 1.0 μM)	> 85%	xx (activity was measured to be between 0.1 μM and 1.0 μM)	65 to 85%			
CN(C)C(=O)N1CC2(CCN(C3CCN(c4cnccn4)CC3)CC2)c2cc(F)ccc21 [compound 895]					25 to 100%	25 to 100%	M1 Activity (M1 muscarinic receptor; [6]): xxx (activity was measured to be less than 2.0 μM); M4 Activity (M4 muscarinic receptor; [7]): xxx (activity was measured to be less than 2.0 μM)
CCOC(=O)N1CCC(N2CCC3(CC2)CN(C(=O)c2ccncc2)c2ccc(F)cc23)CC1 [compound 260]	xxx (activity was measured to be less than 0.1 μM)	65 to 85%	x (activity was measured to be greater than 1.0 μM)	< 65%			
CC(CF)OC(=O)N1CC[C@@H](CN2CCC3(CC2)CN(C(=O)N(C)C)c2ccc(F)cc23)C1 (stereo partly drawn) [compound 805]					25 to 100%	25 to 100%	M1 Activity (M1 muscarinic receptor; [6]): xxx (activity was measured to be less than 2.0 μM); M4 Activity (M4 muscarinic receptor; [7]): xxx (activity was measured to be less than 2.0 μM)
CCCOC(=O)N1C2CCC1CC(N1CCC3(CC1)COc1ccc(F)cc13)C2 (stereo not drawn) [compound 283]	xx (activity was measured to be between 0.1 μM and 1.0 μM)	65 to 85%	x (activity was measured to be greater than 1.0 μM)	65 to 85%			
CCOC(=O)N1CCC(N2CCCC3(CC2)CN(C(C)=O)c2ccc(F)cc23)CC1 (stereo not drawn) [compound 587]					25 to 100%	25 to 100%	M1 Activity (M1 muscarinic receptor; [8]): xxx (activity was measured to be less than 2.0 μM); M4 Activity (M4 muscarinic receptor; [9]): xxx (activity was measured to be less than 2.0 μM)
CCOC(=O)N1C2CCC1CC(N1CCC3(CC1)CN(C(C)=O)c1ccc(C(C)C)cc13)C2 (stereo not drawn) [compound 606]					25 to 100%	25 to 100%	M1 Activity (M1 muscarinic receptor; [8]): xxx (activity was measured to be less than 2.0 μM); M4 Activity (M4 muscarinic receptor; [9]): xxx (activity was measured to be less than 2.0 μM)
Fc1ccc2c(c1)C1(CCN([C@@H]3C[C@@H]4CC[C@H]3C4)CC1)CO2 [compound 175]	xxx (activity was measured to be less than 0.1 μM)	65 to 85%	xx (activity was measured to be between 0.1 μM and 1.0 μM)	65 to 85%			
CCc1nccnc1N1CCC(N2CCC3(CC2)CN(C(=O)N(C)C)c2ccc(F)cc23)CC1 [compound 967]					25 to 100%	25 to 100%	M1 Activity (M1 muscarinic receptor; [6]): xx (activity was measured to be between 2.0 μM and 5.0 μM); M4 Activity (M4 muscarinic receptor; [7]): xx (activity was measured to be between 2.0 μM and 5.0 μM)
COc1cc2c(cc1OC)C1(CCN(C3CC(C)(C)CC(C)(C)C3)CC1)CC2NC(C)=O (stereo not drawn) [compound 566]					< 25%	< 25%	M1 Activity (M1 muscarinic receptor; [8]): x (activity was measured to be greater than 5.0 μM); M4 Activity (M4 muscarinic receptor; [9]): x (activity was measured to be greater than 5.0 μM)
CC(C)C(=O)N[C@H]1CC2(CCN(C[C@H]3C[C@H]4CC[C@H]3C4)CC2)c2ccccc21 [compound 55]	xxx (activity was measured to be less than 0.1 μM)	> 85%	xxx (activity was measured to be less than 0.1 μM)	65 to 85%			
CN(C)C(=O)N1CC2(CCN(C3CCN(C(=O)O[C@H]4CCOC4)CC3)CC2)c2cc(F)ccc21 [compound 120]	xx (activity was measured to be between 0.1 μM and 1.0 μM)	< 65%	x (activity was measured to be greater than 1.0 μM)	< 65%			
Cc1ccc2c(c1)C1(CCN([C@@H]3C[C@@H]4CC[C@@H]3C4)CC1)CN2 [compound 23]	xx (activity was measured to be between 0.1 μM and 1.0 μM)	< 65%	x (activity was measured to be greater than 1.0 μM)	< 65%			
